According to EP0322396A1, “Benzimidazole derivatives, their preparation and use” (Gerot-Pharmazeutika Gesellschaft m.b.H., priority 1987, dated 1989):

Tests used:
[1] = Tolerability (test not described); format: in vivo; conditions: compared with the reference Prazosin
Blutdruck der Ratte = experiment: Blood pressure lowering in the rat after i.v. administration; format: in vivo; conditions: i.v. 1,0 mg/kg, after 3 hours, compared with Nifedipin and Verapamil at the same dose
in vivo = conditions: mouse, iv, Maus i.v.

Row | SMILES | Verträglichkeit [1] | senkt den Blutdruck der Ratte (Blutdruck der Ratte) | LD50 (in vivo) [mg/kg]
1 | CC(O)CC(=O)N1CCC(n2c(=O)[nH]c3ccccc32)CC1 (stereo not drawn) [Beispiel 1, 1-(3-Hydroxybutyryl)-4-(2-oxo-1-benzimidazolinyl)-piperidin] | wesentlich verträglicher als die Vergleichssubstanz |  | 
2 | COC(=O)C1=C(C)NC(C)=C(C(=O)OCCCN2CCC(n3c(=O)[nH]c4ccccc43)CC2)C1c1cccc([N+](=O)[O-])c1 (stereo not drawn) [Beispiel 4, 2,6-Dimethyl-3-{3-(4-(2-oxo-1-benzimidazolinyl)-1-piperidino]-propyloxy-carbonyl}-4-(3-nitro-phenyl)-5-methoxycarbonyl-1,4-dihydropyridin] |  | noch stärker als Nifedipin oder Verapamil | 128
